Test results reported in patent US20150290160A1, “Spermidine/Spermine N1-Acetyltransferase Substrates As Anti-Cancer Drug Compounds” (BIOMARK TECHNOLOGIES INC., priority 2012, published 2015).
Read-outs that look alike come from different tables or passages of the source.

How the values were obtained:
[1] = test system: U2-OS osteosarcoma cell line (negative control, SSAT non-expressing); experiment: MTT cytotoxicity assay, U2-OS; type: cell-based, human; details: for IC50 values (in words): does not express SSAT
Description: (§1) Each human cancer cell line was incubated with each of the four monoamine test drugs at a range of testing concentrations. Cytotoxicity expressed as half maximal inhibitory concentration or IC50 was determined based on a (dimethyl-2-thiazolyl)-2,5-diphenyl-2H-tetrazolium bromide or MTT assay. In parallel, the expression levels of SSAT in these cell lines were measured using a RT-qPCR assay.
Cells of the ten cell lines were harvested from their established adherent cultures with trypsin EDTA, pelleted by centrifugation, and resuspended in the appropriate medium to yield a suspension of cells for each cell line.
Each of the monoamine test drugs (amantadine, rimantadine, dopamine and L-DOPA) and the positive control (spermidine) was accurately weighed, dissolved and further diluted with sterile water into a series of solutions at 100× of their target incubation concentrations. The target incubation concentrations for amantadine, rimantadine, and dopamine were 0.03, 0.1, 0.3, 1, 3, 10, 30, 100, 300 and 1000 μM. The target incubation concentrations for L-DOPA and the positive control, spermidine, were 0.1, 0.3, 1, 3, 10, 30, 100, 300 and 1000 μM.
Incubation was performed in triplicate at each drug concentration for each cell line tested. […]
(§2) After three days of incubation with substrates, an aliquot of 5 mg/mL MTT was added to each well and then incubated for 1 to 3 hours. […] An aliquot from each well was measured for absorbance at 550 nm or 555 nm on a 96-well flat bottom plate with a microplate reader and DMSO for background absorbance correction.
(§3) Cytotoxicity was determined based on treating each cell line with each of the test drugs over a range of concentrations. Following a three day incubation period cytotoxicity was measured by an MTT assay. IC50 values were deduced based on plots of cytotoxicity level expressed as percentage inhibition over the testing concentrations as shown in FIGS. 5 to 14. In parallel to each drug treatment, each cell line was also treated with spermidine as a positive control and the IC50 value for spermidine was determined for comparison.

LNCaP = experiment: MTT cytotoxicity assay, LNCaP
Description: as §1
(§4) Cells of the ten cell lines were harvested from their established adherent cultures with trypsin EDTA, pelleted by centrifugation, and resuspended in the appropriate medium to yield a suspension of cells for each cell line. […]
as §2
as §3, with “In parallel to each drug treatment, each cell line was also treated with spermidine as a positive control and the IC50 value for spermidine was determined for comparison.” left out

T-47D = experiment: MTT cytotoxicity assay, T-47D
Description: as §1, §4, §2
as §3, with “In parallel to each drug treatment, each cell line was also treated with spermidine as a positive control and the IC50 value for spermidine was determined for comparison.” left out

NCI-H23 (lung cancer) = experiment: MTT cytotoxicity assay, NCI-H23; type: cell-based; details: Homo sapiens, 72 h, NCI-H23, three day incubation
Description: as §1, §4, §2
as §3, with “In parallel to each drug treatment, each cell line was also treated with spermidine as a positive control and the IC50 value for spermidine was determined for comparison.” left out

[2] = test system: breast cancer cell line BT-549; experiment: cells; details: Homo sapiens, BT-549, 72 h, read-out: IC50 (cytotoxicity)
Description: as §1, §4, §2
as §3, with “In parallel to each drug treatment, each cell line was also treated with spermidine as a positive control and the IC50 value for spermidine was determined for comparison.” left out

[3] = test system: human cancer cell lines (A549, H322, NCI-H23, MCF-7, T-47D, BT-549, LNCaP, PC-3, Du-145, U2-OS); experiment: MTT cytotoxicity assay, across all cell lines evaluated; type: cell-based; details: 72 h, across all the cell lines evaluated, three day incubation, read-out: IC50 (cytotoxicity), range across cell lines
From the text: Three cell lines from each of lung, breast and prostate cancers have been selected based on literature SSAT expression data and used for potential cytotoxicity screening in the MTT assay. The SSAT non-expressing human osteosarcoma cell line U2-OS was used as the negative control cell line.

[4] = test system: SSAT non-expressing cell lines (U2-OS and HeLa); experiment: Percent confluency during incubation with spermidine, SSAT non-expressing cell lines; type: cell-based, human; details: spermidine from 22 μM to 550 μM, compared among U2-OS, Malme-3M, PC-3, HEK293
[5] = test system: SSAT over-expressing cell lines (Malme-M3 and PC-3); experiment: Percent confluency during incubation with spermidine, SSAT over-expressing cell lines; type: cell-based, human; details: spermidine from 22 μM to 550 μM; compared among U2-OS, HeLa, Malme-3M, PC-3, HEK293

With `N[C@@H](Cc1ccc(O)c(O)c1)C(=O)O` [L-DOPA] the “IC50 values (in words)” value [1] was “low IC50 values”.

For `NC12CC3CC(CC(C3)C1)C2` [amantadine, Amantadine], the “cytotoxicity (in words)” value (LNCaP; LNCaP, over-expresses SSAT (>5-fold change)) was “high cytotoxicity”, the “cytotoxicity (in words)” value (T-47D; T-47D, over-expresses SSAT (>2 fold change)) was “high cytotoxicity” and the IC50 (NCI-H23 (lung cancer)) was 1600 µM. The IC50 [2] was 1160 µM.

`NCCc1ccc(O)c(O)c1` [dopamine, Dopamine] was tested, and the IC50 ([1]; Homo sapiens, U2OS, 72 h, three day incubation, MTT) was 34.1 µM, the “IC50 values (in words)” value [1] was “low IC50 values” and the IC50 [2] was 52 µM.

`CC(N)C12CC3CC(CC(C3)C1)C2` (stereo not shown) [rimantadine, Rimantadine] was tested, and the “cytotoxicity (in words)” value (LNCaP) was “high cytotoxicity” and the “cytotoxicity (in words)” value (T-47D) was “high cytotoxicity”.

`NCCCCNCCCN` [spermidine, Spermidine] was tested, and the IC50 [3] was 3.72 to 32.7 µM, the “relative cell viability, expressed as percent confluency” value [4] was “highest” and the “relative cell viability, expressed as percent confluency” value [5] was “lowest”.
